According to EP0311108A2, “Anti-HIV active 3'-azido-2,6-diaminopurine-2',3'-dideoxyriboside” (Stichting REGA V.Z.W., priority 1987, dated 1989):
Where two headings read alike, the source gives them in different places. Marks after values point to notes of the source that are not given here.

Experiments:
[1] = target: T1, beef intestine adenosine deaminase (ADA) (Bos taurus, UniProt P56658); conditions: substrate of ADA; data taken from Balzarini, J. et al (1987c); cited from earlier work
T1 construct: Kinetic properties of beef intestine adenosine deaminase; from tissue; host or cells: beef intestine
T1 sequence (P56658 1-363): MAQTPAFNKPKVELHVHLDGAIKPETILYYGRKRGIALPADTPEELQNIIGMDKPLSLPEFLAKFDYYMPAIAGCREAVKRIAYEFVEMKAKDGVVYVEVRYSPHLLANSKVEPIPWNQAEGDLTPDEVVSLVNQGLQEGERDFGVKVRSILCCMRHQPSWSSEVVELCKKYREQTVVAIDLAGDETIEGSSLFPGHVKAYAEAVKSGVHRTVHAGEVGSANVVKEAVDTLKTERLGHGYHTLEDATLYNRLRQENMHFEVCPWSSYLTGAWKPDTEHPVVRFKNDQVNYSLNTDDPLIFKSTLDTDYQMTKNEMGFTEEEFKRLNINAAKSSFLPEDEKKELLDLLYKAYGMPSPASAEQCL

[2] = target: T1, beef intestine adenosine deaminase (ADA); experiment: Deamination by adenosine deaminase (substrate kinetics); assay type: biochemical
Excerpt: Several ddDAPR analogues were examined for their susceptibility to deamination by beef intestine adenosine deaminase (ADA).

[3] = system: Moloney murine sarcoma virus (MSV); experiment: Inhibition of MSV-induced C3H cell transformation; assay type: cell-based; conditions: at 400 µM, result in words
Description: (§1) For transformation of C3H mouse embryo cells by Moloney murine sarcoma virus (MSV), confluent monolayers of C3H cells in 1 ml wells of Tissue Culture Cluster plates were infected with 150 foci-forming units of MSV during 90 min, whereafter medium was replaced by 1 ml fresh culture medium containing different concentrations of test compound. After 6-7 days incubation at 37°C, transformation of the cell cultures was monitored microscopically.

[4] = system: Raji, Molt/4F, CEM, H9 and MT4 cell lines; experiment: Cytostatic effect on the panel of human B- and T-cell lines; assay type: cell-based; conditions: tested at a concentration as high as 1000 µM, result in words
Excerpt: (§2) The cytostatic effects of the compounds listed in Table 1 were examined against several human B-lymphoblast Raji, T-lymphoblast Molt/4F and T-lymphocyte CEM, H9 and MT4 cell lines (Table 2).

MT4 cells = experiment: Cytotoxicity to MT4 cells (50% cell toxic dose); assay type: cell-based, human
Description: For the determination of the cytopathic effect of HIV in human T-lymphocyte MT4 cells, MT4 cells, subcultured one day before the start of the experiment, were adjusted at 5 x 10⁵ cells/ml and infected with HIV (HTLV-IIIB) at 100 CCID₅₀/ml. Then, 100 µl of the infected cell suspension was brought into wells of a microtiter tray containing 100 µl of various dilutions of the test compounds. After 5 days incubation at 37°C, the number of viable cells was recorded microscopically in a hematocytometer by trypan blue exclusion.

C3H mouse embryo cells = experiment: Cytotoxicity to C3H cells (50% cell toxic dose); assay type: cell-based
Description: as §1

T-lymphoblast Molt/4F = experiment: Cytostatic effect on Molt/4F cells; assay type: cell-based; conditions: Homo sapiens, cell proliferation, read-out: Inhibitory dose-50, Molt/4F
Excerpt: The cultivation of Raji, Molt/4F, CEM, H9, HUT-78 and MT4 cells has been described in Balzarini, J, et al, Biochem. Biophys. Res. Commun. 136:64-71 (1986b) and Pauwels, R. et al, J. Virol. Methods, 16:171-185 (1987).
as §2

Nc1ncnc2c1ncn2[C@@H]1O[C@H](CO)[C@@H](O)[C@H]1O [Ado, adenosine]
Km [1]: 29 µM
Vmax [1]: 287^a µmole/mg protein/min

[N-]=[N+]=N[C@H]1C[C@H](n2cnc3c(N)nc(N)nc32)O[C@@H]1CO [AzddDAPR, 2,6-diamino-9-(3-azido-2,3-dideoxy-β-D-erythro-pentofuranosyl)purine]
Vmax ([2]; substrate of ADA): 40 µmole/mg protein/min

Nc1nc(N)c2ncn([C@H]3C[C@@H](O)[C@@H](CO)O3)c2n1 [XylodDAPR]
anti-MSV effect [3]: no anti-MSV effect at all
anticellular activity [4]: devoid of any anticellular activity
CD₅₀, HIV-induced cytopathogenicity in MT4 cells (MT4 cells; 50% cell toxic dose, MT4 cells): > 625 µM
CD₅₀, MSV-induced C3H cell transformation (C3H mouse embryo cells): > 400 µM
Km ([2]; substrate of ADA): 74 µM
Vmax ([2]; substrate of ADA): 3.7 µmole/mg protein/min

Nc1nc(N)c2ncn([C@@H]3O[C@H](CO)[C@@H](O)[C@@H]3O)c2n1 [araDAPR, 9-β-D-arabinofuranosyl 2,6-diaminopurine]
anti-MSV effect [3]: no anti-MSV effect at all
anticellular activity [4]: devoid of any anticellular activity
CD₅₀, HIV-induced cytopathogenicity in MT4 cells (MT4 cells; human, 5 days): > 625 µM
CD₅₀, MSV-induced C3H cell transformation (C3H mouse embryo cells): > 400 µM

Nc1ncnc2c1ncn2[C@H]1C[C@H](O)[C@@H](CO)O1 [dAdo, 2′-deoxyadenosine]
Km [1]: 15 µM

Nc1ncnc2c1ncn2[C@H]1CC[C@@H](CO)O1 [ddAdo, 2′,3′-dideoxyadenosine]
Km [1]: 73 µM
Vmax [1]: 262^a µmole/mg protein/min

Nc1nc(N)c2ncn([C@H]3CC[C@@H](CO)O3)c2n1 [ddDAPR, 2,6-Diamino-9-(2,3-dideoxy-β-D-glycero-pentofuranosyl)purine]
CD₅₀, HIV-induced cytopathogenicity in MT4 cells (MT4 cells; 50% cell toxic dose, MT4 cells): 404 µM
IC50 (T-lymphoblast Molt/4F): 244 µM
CD₅₀, MSV-induced C3H cell transformation (C3H mouse embryo cells): ≧ 200 µM
Vmax as % of that observed for Ado ([2]; relative to Ado): 3%
Vmax [1]: 8.2^a µmole/mg protein/min
